In patent US6451853B1, “Small molecules that elicit a polarized Th1 response and for modulation of cellular immunity” (Dovetail Technologies, Inc, priority 1998, dated 2002):
Several values for one entry are separate records, joined by “and”; a condition that tells them apart may be missing. Identical values can stand only once.

Legend:
[1] = tested on: surface TNF alpha on human T cells; assay: Surface TNF alpha expression on T cells by FACS (gating on CD3+ cells); conditions: for surface TNF alpha, overall MFI: 20 mM NAC without or with 20 mM BT; for surface TNF alpha expression, Time Course: each drug 20 mM; for TNF alpha in T cells, % Total / TNF alpha in T cells, MFI: marker All
[2] = tested on: soluble TNF alpha release from human lymphocytes; assay: Soluble TNF alpha in supernatants by ELISA; conditions: Media (unstimulated); drugs 20 mM; ELISA standard curve in pg/mL, unit not given
[3] = tested on: surface TNF alpha on human monocytes; assay: Surface TNF alpha expression on monocytes by FACS (CD14+ cells); type: cell-based; conditions: all drugs 20 mM
Description: The effect of NAC and BT, alone or in combination, on surface TNF alpha expression by stimulated or unstimulated monocytes (prepared from PBM) was examined. […] Table 6. While only a small proportion of T cells from each donor were responsive to the combination NAC/BT, the effect on surface TNF alpha expression in monocytes was significant.

HUT-78 T cell line = assay: CD69 expression by flow cytometry, HUT-78; type: cell-based
Description: (§1) CD69 Expression. CD69 expression was assessed by flow cytometry as described previously. […] CD69 is one of the earliest stimulation markers expressed on T cells upon activation (Testi et al., 1994). The cross-linking of this marker is believed to generate extracellular Ca++ influxes and activate phospholipase A2, and thus it is believed to be an integral part of the activation process (Testi et al., 1994).

[4] = tested on: surface TNF alpha on human monocytes; assay: Surface TNF alpha expression on monocytes by FACS (CD14+ cells); type: cell-based; conditions: for Monocyte TNF alpha surface expression, % Positive: fluorescence greater than isotype control peak
human PBMCs [5] = assay: Cell cycle analysis; type: cell-based; conditions: 18 and 24 hours of exposure
PBMC = assay: CD69 expression by flow cytometry, PBMC T cells; type: cell-based; conditions: for CD69 Expression, MFI of 10,000 events: PBMC
Description: as §1

human PBMCs [6] = assay: PBMC proliferation by 3H-thymidine incorporation; type: cell-based
Description: Treatment with 0.14 mM Taurox-SB increased proliferation of human PBMCs with and without PHA, as detected by incorporation of 3H-thymidine (Table 18).
Human PBMCs are obtained through collection of peripheral blood and isolation over Ficoll 1077. The cells are counted and 5×10^5 cells are plated in triplicate in 96 well plates in 100 μl of media (RPMI 1640, 20% FBS) containing specified conditions. These cells are then allowed to incubate for 48 hours. After this incubation 1 μCi of ^3H-Thymidine is added in a […] volume. The plates are incubated an additional 24 hours and harvested on a Tomtec plate harvester and the filtermat read in a scintillation counter. Many studies have been performed using the drugs in combination with PHA (T cell stimulant (mitogen)) obtained from Sigma.

MOLT-4 T cell line = assay: CD69 expression by flow cytometry, MOLT-4; type: cell-based
Description: as §1

T cells = assay: Ca++ mobilization kinetics with fluo-3AM; type: cell-based; conditions: final concentrations 0.14 mM to 1.4 mM; eight minute time period; data not shown
Description: The kinetics of Ca++ mobilization was observed using the dye fluo-3AM which is a membrane permeable Ca++ indicator which becomes increasingly fluorescent upon Ca++ binding. A baseline reading indicates the resting state of Ca++, followed by injection of Taurox-SB to yield final concentrations of 0.14 mM to 1.4 mM. […] PHA was added as a positive control for the elicitation of a Ca++ response (Greimers et al., 1996). […] (Data not shown.) The role of the second messenger response could be varied, as many proteins are activated by Ca++-regulated intracellular pathways. Second messengers may serve to enhance production of cytokines by immune cells.

[7] = tested on: Cytokine mRNA from T cells (PBMC); assay: RNase protection assay of cytokine mRNA in PBMC (T cells), with or without PMA/ionomycin; conditions: 6 hours, unit not given
Cloudman S-91 cells = assay: CTL lysis of Cloudman S-91 targets (CMFDA leakage); type: cell-based, DBA/2 mouse; conditions: CTLs generated using 0.14 M Taurox-SB in addition to IL-6/IL-12; 10:1 effector:target, 16 hours
Description: The analysis was extended to include killing of the Cloudman S-91 targets used for the CTL generation. Cloudman S-91 cells (5×104) were loaded with chloromethylfluorescein diacetate (CMFDA) and incubated for 16 hours with CTLs generated from DBA/2 splenocytes at a 10:1 effector:target ratio. Lysis was detected by leakage of the CMFDA.

[8] = air and aqueous solutions; cited from earlier work
[9] = With PMA + Ionomycin stimulation, 1.4 mM TSB, 16 hours
[10] = With PMA + Ionomycin stimulation, .14 mM TSB, 16 hours
[11] = Without stimulation, 1.4 mM TSB, 16 hours
[12] = Without stimulation, .14 mM TSB, 16 hours
[13] = Taurox-SB 14 nM, no stimulation
[14] = Taurox-SB 14 nM, with stimulation
[15] = Taurox-SB 1.4 uM, no stimulation
[16] = Taurox-SB 1.4 uM, with stimulation
[17] = Taurox-SB 1.4 mM, no stimulation
[18] = Taurox-SB 1.4 mM, with stimulation

SMILES: CC(=O)N[C@@H](CS)C(=O)O [NAC, N-acetyl-L-cysteine, reference compound]
- surface TNF alpha, overall MFI ([1]; NAC + Stimulation (1 micromolar Ionomycin, 10 ng/ml PMA), individual donors): 25.32 and 31.12 and 95.45 and 53.48 and 17.39 and 12.59
- surface TNF alpha, overall MFI ([1]; NAC + Stimulation with 1 ng PMA): 11.31 and 12.76
- surface TNF alpha expression, Time Course ([1]; Pma/iono, 6 hours): 82
- surface TNF alpha expression, Time Course ([1]; Pma/iono, 16 hours): 93
- surface TNF alpha expression, Time Course ([1]; Pma/iono, 24 hours): 101
- surface TNF alpha expression, Time Course ([1]; Pma/iono, 42 hours): 113
- surface TNF alpha expression, Time Course ([1]; Pma/iono, 68 hours): 80
- surface TNF alpha, overall MFI ([1]; no stimulation, individual donors): 24.7 and 6.96 and 17.49 and 6.34 and 6.68
- surface TNF alpha expression, Time Course ([1]; unstimulated, 6 hours): 20
- surface TNF alpha expression, Time Course ([1]; unstimulated, 16 hours): 33
- surface TNF alpha expression, Time Course ([1]; unstimulated, 24 hours): 39
- surface TNF alpha expression, Time Course ([1]; unstimulated, 42 hours): 56
- surface TNF alpha expression, Time Course ([1]; unstimulated, 68 hours): 47
- Soluble TNF [2]: 15
- surface TNF alpha expression ([3]; stimulated monocytes): relative ineffectiveness
- surface TNF alpha expression ([3]; unstimulated monocytes): not upregulated

SMILES: O=C(CCNC(=O)OCc1ccccc1)NCCS(=O)(=O)O [Taurox-SB, carbobenzoxy beta-alanyl taurine]
- TNF alpha in T cells, % Total [1, 9]: 88.89%
- TNF alpha in T cells, MFI [1, 9]: 85.04
- TNF alpha in T cells, % Total [1, 10]: 85.64%
- TNF alpha in T cells, MFI [1, 10]: 169.68
- TNF alpha in T cells, % Total [1, 11]: 72.09%
- TNF alpha in T cells, MFI [1, 11]: 25.34
- TNF alpha in T cells, % Total [1, 12]: 78.07%
- TNF alpha in T cells, MFI [1, 12]: 20.18
- CD69 Expression, MFI of 10,000 events (HUT-78 T cell line; HUT-78 + PHA, 1.4 mM): 409
- CD69 Expression, MFI of 10,000 events (HUT-78 T cell line; HUT-78, 1.4 mM): 278
- Monocyte TNF alpha surface expression, % Positive ([4]; PMA/iono + Taurox-SB 1.4 mM): 59% and 53% and 57% and 36%
- Monocyte TNF alpha surface expression, % Positive ([4]; Taurox-SB 1.4 mM, no PMA/iono): 9% and 3%
- Monocyte TNF alpha surface expression, MFI ([4]; Taurox-SB 1.4 mM, no PMA/iono, separate experiments): 19.91 and 16.68 and 10.95
- cell cycle distribution (human PBMCs [5]): increase in the proportion of cells in G2/M
- CD69 Expression, MFI of 10,000 events (PBMC; 1.4 mM): 7
- CD69 Expression, MFI of 10,000 events (PBMC; 14 mM): 11
- CD69 expression (PBMC; T cells, concentrations less than 1.4 mM): without effect
- PBMC Proliferation, mean cpm ± SD (human PBMCs [6]; 0.14 mM, No PHA): 2964 ± 684 cpm
- PBMC Proliferation, mean cpm ± SD (human PBMCs [6]; 0.14 mM, PHA 10 μg/ml): 5538 ± 597 cpm
- viability (human PBMCs [6]; 1.4 mM): slight reduction in viability
- PBMC Proliferation, mean cpm ± SD (human PBMCs [6]; .014 mM, No PHA): 1346 ± 70 cpm
- PBMC Proliferation, mean cpm ± SD (human PBMCs [6]; .014 mM, PHA 10 μg/ml): 4794 ± 652 cpm
- CD69 Expression, MFI of 10,000 events (MOLT-4 T cell line; MOLT-4 + PHA, 1.4 mM): 547
- CD69 Expression, MFI of 10,000 events (MOLT-4 T cell line; MOLT-4, 1.4 mM): 208
- Ca++ mobilization (T cells): rising or sustained
- Effect on GAPDH message [7, 13]: −20.94
- Effect on IFNg message [7, 13]: 21.53
- Effect on Ltb message [7, 13]: 29.83
- Effect on TGFb1 message [7, 13]: 17.51
- Effect on TNFa message [7, 13]: 2.10
- Effect on TNFb message [7, 13]: 62.96
- Effect on GAPDH message [7, 14]: −8.10
- Effect on IFNg message [7, 14]: −32.73
- Effect on Ltb message [7, 14]: 12.29
- Effect on TGFb1 message [7, 14]: −10.25
- Effect on TNFa message [7, 14]: −15.96
- Effect on TNFb message [7, 14]: 22.72
- Effect on GAPDH message [7, 15]: −8.16
- Effect on IFNg message [7, 15]: 16.76
- Effect on Ltb message [7, 15]: 21.09
- Effect on TGFb1 message [7, 15]: 29.61
- Effect on TNFa message [7, 15]: 21.27
- Effect on TNFb message [7, 15]: 311.16
- Effect on GAPDH message [7, 16]: 4.88
- Effect on IFNg message [7, 16]: −9.85
- Effect on Ltb message [7, 16]: 2.92
- Effect on TGFb1 message [7, 16]: −0.09
- Effect on TNFa message [7, 16]: 48.67
- Effect on TNFb message [7, 16]: 4.18
- Effect on GAPDH message [7, 17]: 4.96 _
- Effect on IFNg message [7, 17]: 388.08
- Effect on Ltb message [7, 17]: 85.61
- Effect on TGFb1 message [7, 17]: 36.89
- Effect on TNFa message [7, 17]: 461.93
- Effect on TNFb message [7, 17]: 373.82
- Effect on GAPDH message [7, 18]: −38.75
- Effect on IFNg message [7, 18]: −64.90
- Effect on Ltb message [7, 18]: 234.28
- Effect on TGFb1 message [7, 18]: −25.88
- Effect on TNFa message [7, 18]: −100.00
- Effect on TNFb message [7, 18]: 20.95
- lysis of Cloudman S-91 targets (Cloudman S-91 cells): 73%

SMILES: NCCC(=O)NCCS [beta-aletheine]
- stability [8]: unstable in air and aqueous solutions
